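All cell lines were grown in 96-well plates and treated with compound for 48 hours. The concentration for 50% growth inhibition is given as GI50. TGI marks complete inhibition of growth.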
Key:
Experiment in all cases: growth of human tumour cells (NCI), 48 h
[1] = test system: 786-0 renal
[2] = test system: A498 renal
[3] = test system: A549 NSCLC
[4] = test system: ACHN renal
[5] = test system: CAKI-1 renal
[6] = test system: CCRF-CEM leukemia
[7] = test system: COLO 205 colon
[8] = test system: DU-145 prostate
[9] = test system: EKVX NSCLC
[10] = test system: HCC-2998 colon
[11] = test system: HCT-116 colon
[12] = test system: HCT-15 colon
[13] = test system: HL-60(TB) leukemia
[14] = test system: HOP-62 NSCLC
[15] = test system: HOP-92 NSCLC
[16] = test system: HS 578T breast
[17] = test system: HT29 colon
[18] = test system: IGROV1 ovarian
[19] = test system: KM12 colon
[20] = test system: LOX IMVI melanoma
[21] = test system: M14 melanoma
[22] = test system: MALME-3M melanoma
[23] = test system: MCF7 breast
[24] = test system: MDA-MB-231 breast
[25] = test system: MDA-MB-435
[26] = test system: MOLT-4 leukemia
[27] = test system: NCI-H23 lung
[28] = test system: NCI-H460 lung
[29] = test system: NCI-H522 lung
[30] = test system: NCI/ADR-RES ovarian
[31] = test system: OVCAR-3 ovarian
[32] = test system: OVCAR-4 ovarian
[33] = test system: OVCAR-5 ovarian
[34] = test system: OVCAR-8 ovarian
[35] = test system: PC-3 prostate
[36] = test system: RPMI-8226 leukemia
[37] = test system: SF-268 CNS
[38] = test system: SF-295 CNS
[39] = test system: SF-539 CNS
[40] = test system: SK-MEL-2 melanoma
[41] = test system: SK-MEL-28 melanoma
[42] = test system: SK-MEL-5 melanoma
[43] = test system: SN12C renal
[44] = test system: SNB-75 CNS
[45] = test system: SR leukemia
[46] = test system: SW-620 colon
[47] = test system: T-47D breast
[48] = test system: TK-10 renal
[49] = test system: U251 CNS
[50] = test system: UACC-257 melanoma
[51] = test system: UACC-62 melanoma
[52] = test system: UO-31 renal
[53] = test system: BT-549 breast
[54] = test system: K-562 leukemia
[55] = test system: NCI-H226 lung
[56] = test system: SNB-19 CNS

## CCOC(=O)C1C(c2ccc3c(c2)OCO3)c2c([nH][nH]c2=O)CC1(O)OCC (stereo not drawn)
[1]
  TGI: > 100 µM
[2]
  TGI: > 100 µM
[3]
  TGI: > 100 µM
[4]
  TGI: > 100 µM
[5]
  TGI: > 100 µM
[6]
  TGI: > 100 µM
[7]
  TGI: > 100 µM
[8]
  TGI: > 100 µM
[9]
  TGI: > 100 µM
[10]
  TGI: > 100 µM
[11]
  TGI: > 100 µM
[12]
  TGI: > 100 µM
[13]
  TGI: > 100 µM
[14]
  TGI: > 100 µM
[15]
  TGI: > 100 µM
[16]
  TGI: > 100 µM
[17]
  TGI: > 100 µM
[18]
  TGI: > 100 µM
[19]
  TGI: > 100 µM
[20]
  TGI: > 100 µM
[21]
  TGI: > 100 µM
[22]
  TGI: > 100 µM
[23]
  TGI: > 100 µM
[24]
  TGI: > 100 µM
[25]
  TGI: > 100 µM
[26]
  TGI: > 100 µM
[27]
  TGI: > 100 µM
[28]
  TGI: > 100 µM
[29]
  TGI: > 100 µM
[30]
  TGI: > 100 µM
[31]
  TGI: > 100 µM
[32]
  TGI: > 100 µM
[33]
  TGI: > 100 µM
[34]
  TGI: > 100 µM
[35]
  TGI: > 100 µM
[36]
  TGI: > 100 µM
[37]
  TGI: > 100 µM
[38]
  TGI: > 100 µM
[39]
  TGI: > 100 µM
[40]
  TGI: > 100 µM
[41]
  TGI: > 100 µM
[42]
  TGI: > 100 µM
[43]
  TGI: > 100 µM
[44]
  TGI: > 100 µM
[45]
  TGI: > 100 µM
[46]
  TGI: > 100 µM
[47]
  TGI: > 100 µM
[48]
  TGI: > 100 µM
[49]
  TGI: > 100 µM
[50]
  TGI: > 100 µM
[51]
  TGI: > 100 µM
[52]
  TGI: > 100 µM

## COc1ccc(/C=C(/C(=O)N2CCCCC2)c2cc(OC)c(OC)c(OC)c2)cc1
[1]
  GI50: 0.404 µM
  TGI: > 100 µM
[2]
  GI50: 0.682 µM
  TGI: 71.7 µM
[3]
  GI50: 1.5 µM
  TGI: > 100 µM
[4]
  GI50: 0.713 µM
  TGI: > 100 µM
[53]
  GI50: 0.417 µM
  TGI: 29.9 µM
[5]
  GI50: 0.492 µM
  TGI: > 100 µM
[6]
  GI50: 1.17 µM
  TGI: > 100 µM
[7]
  GI50: 0.664 µM
  TGI: 4.9 µM
[8]
  GI50: 1.5 µM
  TGI: 17.3 µM
[9]
  GI50: 3.4 µM
  TGI: > 100 µM
[10]
  GI50: 2.82 µM
  TGI: > 100 µM
[11]
  GI50: 0.379 µM
  TGI: > 100 µM
[12]
  GI50: 0.579 µM
  TGI: > 100 µM
[13]
  GI50: 0.441 µM
  TGI: 4.1 µM
[14]
  GI50: 0.911 µM
  TGI: > 100 µM
[15]
  GI50: 12.4 µM
  TGI: > 100 µM
[16]
  GI50: 0.966 µM
  TGI: > 100 µM
[17]
  GI50: 0.412 µM
  TGI: > 100 µM
[18]
  GI50: 0.699 µM
  TGI: > 100 µM
[54]
  GI50: 0.452 µM
  TGI: > 100 µM
[19]
  GI50: 0.482 µM
  TGI: > 100 µM
[20]
  GI50: 1.04 µM
  TGI: > 100 µM
[21]
  GI50: 0.478 µM
  TGI: > 100 µM
[23]
  GI50: 0.454 µM
  TGI: > 100 µM
[24]
  GI50: 4.54 µM
  TGI: > 100 µM
[25]
  GI50: 0.257 µM
  TGI: 0.935 µM
[26]
  GI50: 2.06 µM
  TGI: > 100 µM
[55]
  GI50: 3.4 µM
  TGI: > 100 µM
[27]
  GI50: 3.88 µM
  TGI: > 100 µM
[28]
  GI50: 0.497 µM
  TGI: > 100 µM
[29]
  GI50: 1.7 µM
  TGI: > 100 µM
[30]
  GI50: 1.15 µM
  TGI: > 100 µM
[31]
  GI50: 0.325 µM
  TGI: 1.52 µM
[32]
  GI50: 18 µM
  TGI: > 100 µM
[33]
  GI50: 5.26 µM
  TGI: > 100 µM
[34]
  GI50: 6.12 µM
  TGI: > 100 µM
[35]
  GI50: 0.527 µM
  TGI: > 100 µM
[36]
  GI50: 4.13 µM
  TGI: > 100 µM
[37]
  GI50: 1.79 µM
  TGI: > 100 µM
[38]
  GI50: 0.422 µM
  TGI: > 100 µM
[40]
  GI50: 0.967 µM
  TGI: > 100 µM
[41]
  GI50: 8.89 µM
  TGI: > 100 µM
[42]
  GI50: 0.753 µM
  TGI: 43.9 µM
[43]
  GI50: 4.52 µM
  TGI: > 100 µM
[56]
  GI50: 0.946 µM
  TGI: > 100 µM
[44]
  GI50: 0.483 µM
  TGI: > 100 µM
[45]
  GI50: 0.593 µM
  TGI: > 100 µM
[46]
  GI50: 0.506 µM
  TGI: > 100 µM
[48]
  GI50: > 100 µM
  TGI: > 100 µM
[49]
  GI50: 1.48 µM
  TGI: > 100 µM
[50]
  GI50: > 100 µM
  TGI: > 100 µM
[51]
  GI50: 0.44 µM
  TGI: > 100 µM
[52]
  GI50: 4.76 µM
  TGI: > 100 µM
